Assay results taken from patent US20150258059A1, “ANTIMICROBIAL AND RADIOPROTECTIVE COMPOUNDS” (BioDiem, Ltd, priority 2001, published 2015).
Converted amounts (≈) assume the structure as drawn. Like-named read-outs stand apart in the source and are kept apart here.

Assays:
Salmonella intranasally = experiment: Anti-bacterial activity in vivo, infected mice; conditions: schedule +2, +3; 200 mg/kg intramuscularly
[1] = tested on: Corynebacterium paratuberculosis; experiment: Anti-bacterial activity in vivo, infected mice
Experimental: The therapeutic and prophylactic effect of the substances was determined in experiments in vivo on mice, infected intraperitoneally or intranasally with Corynebacterium paratuberculosis.

[2] = tested on: skin wounds infected by Streptococcus and Staphylococcus; experiment: Treatment of infected wounds, human volunteers; format: in vivo; conditions: 0.1% ointment for 3 days
Experimental: Human volunteers suffering from skin wounds infected by Streptococcus and Staphylococcus were treated with 0.1% Compounds (1) and (2) in an ointment base of vaseline, sheep fat, and sulfoxide.

A. Flavus = experiment: M38-P microdilution MIC/MFC; format: cell-based; conditions: Table 16, 48 h, 35° C.
A. Niger = experiment: M38-P microdilution MIC/MFC; format: cell-based; conditions: Table 16, 48 h, 35° C.
Cryptococcus neoformans = experiment: M38-P microdilution MIC/MFC; format: cell-based; conditions: Table 16, 24 h, 35° C.
R. oryzae = experiment: M38-P microdilution MIC/MFC; format: cell-based; conditions: Table 16, 48 h, 35° C.
Fusarium graminearum [3] = experiment: microbe, parasite or virus in culture; format: cell-based; conditions: Table 16; M38-P; 48 h, 35° C.
Rhizomucor pusillus = experiment: M38-P microdilution MIC/MFC; format: cell-based; conditions: Table 16, 48 h, 35° C.
[4] = tested on: C. guillermondii RMIT 176; experiment: M38-P microdilution MIC/MFC; format: cell-based; conditions: Table 16, 24 h, 35° C.
C. parapsilosis RMIT 178 = experiment: M38-P microdilution MIC/MFC; format: cell-based; conditions: 35° C.
C. krusei RMIT 177 = experiment: M38-P microdilution MIC/MFC; format: cell-based; conditions: 35° C.
Fonsecaea pedrosoi = experiment: M38-P microdilution MIC/MFC; format: cell-based; conditions: Table 16, Dematiaceous fungi
F. chlamydosporum = experiment: M38-P microdilution MIC/MFC; format: cell-based; conditions: Table 16, 48 h, 35° C.
Phialophora verrucosa = experiment: M38-P microdilution MIC/MFC; format: cell-based; conditions: Table 16, Dematiaceous fungi
Pseudoallescheria boydii = experiment: M38-P microdilution MIC/MFC; format: cell-based; conditions: Table 16, Dematiaceous fungi
C. glabrate RMIT 157 = experiment: M38-P microdilution MIC/MFC; format: cell-based; conditions: Table 16, 24 h, 35° C.
Paecilomyces variotii = experiment: M38-P microdilution MIC/MFC; format: cell-based; conditions: Table 16, 48 h, 35° C.
Rhizopus stoloniefer = experiment: M38-P microdilution MIC/MFC; format: cell-based; conditions: Table 16, 48 h, 35° C.
Aspergillus fumigatus = experiment: M38-P microdilution MIC/MFC; format: cell-based; conditions: Table 16, 48 h, 35° C.
Candida albicans [5] = experiment: M38-P microdilution MIC/MFC; format: cell-based; conditions: Table 16, 24 h, 35° C.
C. tropicalis RMIT 181 = experiment: M38-P microdilution MIC/MFC; format: cell-based; conditions: 35° C.
Epidermophyton floccosum = experiment: NCCLS broth macro-dilution MIC/MFC (RPMI); format: cell-based; conditions: Table 10, 7 day, 30° C.
Trichophyton rubrum = experiment: NCCLS broth macro-dilution MIC/MFC (RPMI); format: cell-based; conditions: Table 10, 7 day, 30° C.
Rhodotorula rubra = experiment: NCCLS broth macro-dilution MIC/MFC (RPMI); format: cell-based; conditions: Table 10, 4 day, 30° C.
Fusarium graminearum [6] = experiment: microbe, parasite or virus in culture; format: cell-based
Microsporum gypseum = experiment: NCCLS broth macro-dilution MIC/MFC (RPMI); format: cell-based; conditions: Table 10, 7 day, 30° C.
Candida albicans [7] = experiment: NCCLS broth macro-dilution MIC/MFC (RPMI); format: cell-based; conditions: Table 10, 4 day, 30° C.
Haemophilus influenzae = experiment: NCCLS broth microdilution MIC/MBC; format: cell-based; conditions: Table 9, 35° C., 24 hours
S. aureus = experiment: Antibacterial activity in the presence of blood, macrodilution; format: cell-based
[8] = tested on: Escherichia coli ATCC 25922; experiment: NCCLS broth microdilution MIC/MBC; format: cell-based; conditions: for MIC: Escherichia coli, ATCC25922, read-out: MIC
[9] = tested on: Staphylococcus aureus ATCC 29213; experiment: NCCLS broth microdilution MIC/MBC; format: cell-based; conditions: for MIC: Staphylococcus aureus, ATCC29213, read-out: MIC
[10] = tested on: Enterococcus faecalis ATCC 29212; experiment: NCCLS broth microdilution MIC/MBC; format: cell-based; conditions: for MIC: Enterococcus faecalis, ATCC29212
[11] = tested on: Pseudomonas aeruginosa ATCC 27853; experiment: NCCLS broth microdilution MIC/MBC; format: cell-based; conditions: for MIC: Pseudomonas aeruginosa, ATCC27853, read-out: MIC

O=[N+]([O-])/C=C/c1ccc2c(c1)OCO2 [Compound (2), 3,4-methylenedioxy-β-nitrostyrene]
Cumulative mortality (test) (Salmonella intranasally): 15
Incubation period days (test) (Salmonella intranasally): 1 days
therapeutic and prophylactic activity [1]: showed therapeutic and prophylactic activity
solubility in organic solvents (Solubility): soluble in acetone, alcohol, acetic acid and in a majority of organic solvents
solubility in water (Solubility): non-soluble in water
clearing of infected wound [2]: cleared the wound completely of pus

C[C@@H]1[C@H](O)[C@@H](C)/C=C/C=C/C=C/C=C/C=C/C=C/C=C/[C@H](O[C@@H]2O[C@H](C)[C@@H](O)[C@H](N)[C@@H]2O)C[C@@H]2O[C@](O)(C[C@@H](O)C[C@@H](O)[C@H](O)CC[C@@H](O)C[C@@H](O)CC(=O)O[C@H]1C)C[C@H](O)[C@H]2C(=O)O [Amphotericin B]
MIC (A. Flavus): 8 µg/mL (≈ 8.66 µM)
MMC (A. Flavus): 8 µg/mL
MIC (A. Niger): 2 µg/mL (≈ 2.16 µM)
MMC (A. Niger): 2 µg/mL
MIC (Cryptococcus neoformans): 0.5 µg/mL (≈ 0.541 µM)
MIC (R. oryzae): 4 µg/mL (≈ 4.33 µM)
MMC (R. oryzae): 4 µg/mL
MIC (Fusarium graminearum [3]): 4 µg/mL (≈ 4.33 µM)
MMC (Fusarium graminearum [3]): 8 µg/mL
MIC (Rhizomucor pusillus): 1 µg/mL (≈ 1.08 µM)
MMC (Rhizomucor pusillus): 1 µg/mL
MIC [4]: 0.03 µg/mL (≈ 0.0325 µM)
MMC [4]: 0.06 µg/mL
MIC (C. parapsilosis RMIT 178; Table 16, 24 h): 0.253 µg/mL (≈ 0.274 µM)
MMC (C. parapsilosis RMIT 178; Table 16, 24 h): 0.25 µg/mL
MIC (C. krusei RMIT 177; Table 16, 24 h): 0.52 µg/mL (≈ 0.563 µM)
MMC (C. krusei RMIT 177; Table 16, 24 h): 0.5 µg/mL
MIC (Fonsecaea pedrosoi): 8 µg/mL (≈ 8.66 µM)
MMC (Fonsecaea pedrosoi): 16 µg/mL
MIC (F. chlamydosporum): 2 µg/mL (≈ 2.16 µM)
MMC (F. chlamydosporum): 2 µg/mL
MIC (Phialophora verrucosa): 2 µg/mL (≈ 2.16 µM)
MMC (Phialophora verrucosa): 4 µg/mL
MIC (Pseudoallescheria boydii): 4 µg/mL (≈ 4.33 µM)
MMC (Pseudoallescheria boydii): 16 µg/mL
MIC (C. glabrate RMIT 157): 0.5 µg/mL (≈ 0.541 µM)
MMC (C. glabrate RMIT 157): 1 µg/mL
MIC (Paecilomyces variotii): 1 µg/mL (≈ 1.08 µM)
MMC (Paecilomyces variotii): 1 µg/mL
MIC (Rhizopus stoloniefer): >16 µg/mL
MMC (Aspergillus fumigatus): 8 µg/mL
MIC (Candida albicans [5]): 0.251 µg/mL (≈ 0.272 µM)
MMC (Candida albicans [5]): 0.25 µg/mL
MIC (C. tropicalis RMIT 181; Table 16, 24 h): 0.25 µg/mL (≈ 0.271 µM)
MMC (C. tropicalis RMIT 181; Table 16, 24 h): 0.5 µg/mL

Clc1ccc(COC(Cn2ccnc2)c2ccc(Cl)cc2Cl)c(Cl)c1 (stereo not drawn) [Miconazole]
MIC (Cryptococcus neoformans; Cryptococcus neoformans, read-out: MIC): 4 µg/mL (≈ 9.61 µM)
MIC (Epidermophyton floccosum; Epidermophyton floccosum, 168 h): 0.25 µg/mL (≈ 0.601 µM)
MMC (Epidermophyton floccosum): 0.25 µg/mL
MMC [4]: 1 µg/mL
MIC ([4]; read-out: MIC): 1 µg/mL (≈ 2.4 µM)
MIC (C. parapsilosis RMIT 178; Lodderomyces parapsilosis, RMIT178, Table 16, 24 h, read-out: MIC): 0.5 µg/mL (≈ 1.2 µM)
MMC (C. parapsilosis RMIT 178; Table 16, 24 h): 0.5 µg/mL
MIC (C. krusei RMIT 177; Pichia kudriavzevii, RMIT177, Table 16, 24 h, read-out: MIC): 2 µg/mL (≈ 4.81 µM)
MMC (C. krusei RMIT 177; Table 16, 24 h): 2 µg/mL
MMC (Trichophyton rubrum): 64 µg/mL
MIC (Trichophyton rubrum; Trichophyton rubrum, 168 h): 1 µg/mL (≈ 2.4 µM)
MIC (Rhodotorula rubra; Rhodotorula, 96 h): 8 µg/mL (≈ 19.2 µM)
MMC (Rhodotorula rubra): 32 µg/mL
MMC (C. glabrate RMIT 157): 0.5 µg/mL
MIC (C. glabrate RMIT 157; read-out: MIC): 0.25 µg/mL (≈ 0.601 µM)
MIC (Fusarium graminearum [6]; Fusarium graminearum, 168 h): 32 µg/mL (≈ 76.9 µM)
MMC (Fusarium graminearum [6]; Table 10, 7 day, 30° C.): 32 µg/mL
MIC (Microsporum gypseum; Nannizzia gypsea, 168 h): 4 µg/mL (≈ 9.61 µM)
MMC (Microsporum gypseum): 64 µg/mL
MIC (Candida albicans [7]; Candida albicans, 96 h): 4 µg/mL (≈ 9.61 µM)
MMC (Candida albicans [7]): 8 µg/mL
MIC (C. tropicalis RMIT 181; Candida tropicalis, RMIT181, Table 16, 24 h, read-out: MIC): 1 µg/mL (≈ 2.4 µM)
MMC (C. tropicalis RMIT 181; Table 16, 24 h): 2 µg/mL

O=C(O)c1cn(C2CC2)c2cc(N3CCNCC3)c(F)cc2c1=O [Ciprofloxacin]
MIC (Haemophilus influenzae; Haemophilus influenzae, read-out: MIC): 6 ng/mL (≈ 0.0181 µM)
MMC (Haemophilus influenzae): 0.006 µg/mL
decrease in activity (S. aureus; in the presence of 10% plasma): 4 fold
decrease in activity (S. aureus; in the presence of whole blood): 2 fold
MIC ([8]; Table 9, 35° C., 24 hours): 0.02 µg/mL (≈ 0.0604 µM)
MIC ([8]; Table 17, 2 or 3 replicates): 0.02 µg/mL (≈ 0.0604 µM)
MMC ([8]; Table 9, 35° C., 24 hours): 0.02 µg/mL
MMC ([8]; Table 17, 2 or 3 replicates): 0.02 µg/mL
MIC ([9]; Table 9, 35° C., 24 hours): 0.25 µg/mL (≈ 0.754 µM)
MIC ([9]; Table 17, 2 or 3 replicates): 0.25 µg/mL (≈ 0.754 µM)
MMC ([9]; Table 9, 35° C., 24 hours): 0.25 µg/mL
MMC ([9]; Table 17, 2 or 3 replicates): 0.25 µg/mL
MIC ([10]; Table 9, 35° C., 24 hours): 0.5 µg/mL (≈ 1.51 µM)
MIC ([10]; Table 17, 2 or 3 replicates): 0.5 µg/mL (≈ 1.51 µM)
MMC ([10]; Table 9, 35° C., 24 hours): 0.5 µg/mL
MMC ([10]; Table 17, 2 or 3 replicates): 0.5 µg/mL
MIC ([11]; Table 9, 35° C., 24 hours): 0.25 µg/mL (≈ 0.754 µM)
MIC ([11]; Table 17, 2 or 3 replicates): 0.25 µg/mL (≈ 0.754 µM)
MMC ([11]; Table 9, 35° C., 24 hours): 0.25 µg/mL
MMC ([11]; Table 17, 2 or 3 replicates): 0.25 µg/mL
